Here are results for eight molecules from patent publication US20090318370A1, “NOVEL GLYCOCONJUGATED CHLORIN DERIVATIVES AND METHOD OF PRODUCING THE SAME” (REI Medical Co., Ltd., priority 2007, published 2009).

This test deals with HeLa cells. Kind of test: Evaluation of phototoxicity: WST-8 cell viability after light exposure (16 J/cm^2, halogen lamp, 500 nm cut-off filter). Type of test: cell-based. The following applies: light 16 J/cm^2. As to the method: HeLa cells were plated in a 96-well plate to give a concentration of 5×10^3 cells/well (medium volume: 100 μL), and the plate was incubated at 37° C. in 5% CO2 atmosphere for 24 hours. To each well was added 100 μL of a drug solution containing 2% dimethylsulfoxide to give a certain concentration. The plate was further incubated at 37° C. in 5% CO2 atmosphere for 24 hours. Then, the medium was discarded and the cells were washed twice with phosphate buffered saline (100 μL). To each well was added 100 μL of Dulbecco's modified Eagle's medium (DMEM) containing 10% fetal calf serum (FCS). The cells were then exposed to light (16 J/cm^2) from a 100 W halogen lamp equipped with a 500 nm cut-off filter and a water jacket. After that, the plate was further incubated at 37° C. in 5% CO2 for 24 hours. And the plate was subjected to WST-8 assay and cell viability rates were calculated as relative values to those obtained in the absence of drugs. The average values of the result from 6 replicate experiments for each drug were calculated.
The light dose was adjusted by controlling the irradiation time by using a power meter.
WST assay is one of the method to determine the activity of dehydrogenase of cells, in which tetrazolium salt (WST-8) is reduced dependently on the number of viable cells. The amount of the reduction was determined by absorption spectroscopy to provide the relative amount of viable cells.
Phototoxicity were determined for the chlorin derivatives or porphyrin derivatives which were prepared in the above Example and Comparative Example and obtained as production intermediates, and the compound from Reference Example at a drug concentration of 0.5 μM according to the above evaluation method.
For the compounds No. 6 to 9 and 14 to 16 shown in Table 1, phototoxicity was determined at a drug concentration of 0.09 μM according to the above evaluation method.
For orientation: Tetrazolium assays rely on reduction of a dye to a coloured formazan, in cell work by metabolically active cells.

The mark [1] stands for this setting: drug concentration 0.5 μM, FIG. 3.
Setting [2] is: drug concentration 0.09 μM, FIG. 4.

With “5,10,15,20-tetrakis[4-(2,3,4,6-tetra-O-acetyl-β-D-glucopyranosylthio)-2,3,5,6-tetrafluorophenyl]-2,3-[methano(N-methyl)iminomethano]chlorin [compound 12]”, the “phototoxicity of acetyl-protected compound compared with No. 6, 7, 8, 9 respectively” value under setting [1] is reported as “phototoxicity was disappeared”.
Turning to `CN1CC2c3nc(c(-c4c(F)c(F)c(F)c(F)c4F)c4ccc([n-]4)c(-c4c(F)c(F)c(F)c(F)c4F)c4nc(c(-c5c(F)c(F)c(F)c(F)c5F)c5ccc([n-]5)c3-c3c(F)c(F)c(F)c(F)c3F)C=C4)C2C1.[Pd+2]` (centres unmarked) [compound 4, {5,10,15,20-tetrakis(pentafluorophenyl)-2,3-[methano(N-methyl)iminomethano]chlorinato}palladium], the “phototoxicity of metal complex compared with compound No. 3” value under setting [1] was “phototoxicity increased”.
For `OC[C@H]1O[C@@H](Sc2c(F)c(F)c(-c3c4nc(c(-c5c(F)c(F)c(S[C@@H]6O[C@H](CO)[C@@H](O)[C@H](O)[C@H]6O)c(F)c5F)c5ccc([nH]5)c(-c5c(F)c(F)c(S[C@@H]6O[C@H](CO)[C@@H](O)[C@H](O)[C@H]6O)c(F)c5F)c5nc(c(-c6c(F)c(F)c(S[C@@H]7O[C@H](CO)[C@@H](O)[C@H](O)[C@H]7O)c(F)c6F)c6ccc3[nH]6)C=C5)C=C4)c(F)c2F)[C@H](O)[C@@H](O)[C@@H]1O` [compound 6, 5,10,15,20-tetrakis[4-(β-D-glucopyranosylthio)-2,3,5,6-tetrafluorophenyl]porphyrin, reference compound], the “effect of sugar linkage on phototoxicity” value under setting [2] is on record as “did not result in any improvement effect of phototoxicity”. Under setting [1], the “phototoxicity compared with commercially available TPPS (No. 14)” value was “higher phototoxicity” and the “phototoxicity compared with non-glycoconjugated compound (No. 1, 2, 3, 4 respectively)” value is recorded as “higher phototoxicity”.
With `OCC1OC(Sc2c(F)c(F)c(-c3c4nc(c(-c5c(F)c(F)c(SC6OC(CO)C(O)C(O)C6O)c(F)c5F)c5ccc([n-]5)c(-c5c(F)c(F)c(SC6OC(CO)C(O)C(O)C6O)c(F)c5F)c5nc(c(-c6c(F)c(F)c(SC7OC(CO)C(O)C(O)C7O)c(F)c6F)c6ccc3[n-]6)C=C5)C=C4)c(F)c2F)C(O)C(O)C1O.[Pd+2]` [compound 7, {5,10,15,20-tetrakis[4-(β-D-glucopyranosylthio)-2,3,5,6-tetrafluorophenyl]porphyrinato}palladium (II), reference compound], under setting [2], the “effect of sugar linkage on phototoxicity” value is recorded as “did not result in any improvement effect of phototoxicity”. Under setting [1], the “phototoxicity compared with commercially available TPPS (No. 14)” value is listed as “higher phototoxicity” and the “phototoxicity compared with non-glycoconjugated compound (No. 1, 2, 3, 4 respectively)” value is recorded as “higher phototoxicity”.
For `CN1C[C@@H]2c3nc(c(-c4c(F)c(F)c(S[C@@H]5O[C@H](CO)[C@@H](O)[C@H](O)[C@H]5O)c(F)c4F)c4ccc([nH]4)c(-c4c(F)c(F)c(S[C@@H]5O[C@H](CO)[C@@H](O)[C@H](O)[C@H]5O)c(F)c4F)c4nc(c(-c5c(F)c(F)c(S[C@@H]6O[C@H](CO)[C@@H](O)[C@H](O)[C@H]6O)c(F)c5F)c5ccc([nH]5)c3-c3c(F)c(F)c(S[C@@H]5O[C@H](CO)[C@@H](O)[C@H](O)[C@H]5O)c(F)c3F)C=C4)[C@@H]2C1` [compound 8, 5,10,15,20-tetrakis[4-(β-D-glucopyranosylthio)-2,3,5,6-tetrafluorophenyl]-2,3-[methano(N-methyl)iminomethano]chlorin], under setting [2], the “effect of sugar linkage on phototoxicity” value is on record as “distinguished improvement of phototoxicity” and the “phototoxicity compared with O-glycosylated chlorin derivative No. 15” value is given as “higher phototoxicity”. Moreover, the “phototoxicity compared with galactose-linked derivative No. 16” value (drug concentration 0.09 μM, FIG. 5) was “higher phototoxicity”. Besides, under setting [1], the “phototoxicity compared with commercially available TPPS (No. 14)” value was “higher phototoxicity” and the “phototoxicity compared with non-glycoconjugated compound (No. 1, 2, 3, 4 respectively)” value is given as “higher phototoxicity”. For the same molecule, for the setting “drug concentration 0.5 μM”, the “phototoxicity compared with No. 6, 7 and No. 15” value was “no difference in phototoxicity”; the “phototoxicity compared with O-glycosylated chlorin derivative No. 15” value is listed as “not any differences in phototoxicity”.
With `CN1CC2c3nc(c(-c4c(F)c(F)c(SC5OC(CO)C(O)C(O)C5O)c(F)c4F)c4ccc([n-]4)c(-c4c(F)c(F)c(SC5OC(CO)C(O)C(O)C5O)c(F)c4F)c4nc(c(-c5c(F)c(F)c(SC6OC(CO)C(O)C(O)C6O)c(F)c5F)c5ccc([n-]5)c3-c3c(F)c(F)c(SC5OC(CO)C(O)C(O)C5O)c(F)c3F)C=C4)C2C1.[Pd+2]` [compound 9, {5,10,15,20-tetrakis[4-(β-D-glucopyranosylthio)-2,3,5,6-tetrafluorophenyl]-2,3-[methano(N-methyl)iminomethano]chlorinato}palladium (II)], under setting [2], the “effect of sugar linkage on phototoxicity” value is “distinguished improvement of phototoxicity” and the “phototoxicity compared with O-glycosylated chlorin derivative No. 15” value was “higher phototoxicity”. Under setting [1], the “phototoxicity compared with commercially available TPPS (No. 14)” value is listed as “higher phototoxicity” and the “phototoxicity compared with non-glycoconjugated compound (No. 1, 2, 3, 4 respectively)” value is on record as “higher phototoxicity”. For the setting “drug concentration 0.5 μM”, the “phototoxicity compared with No. 6, 7 and No. 15” value was “no difference in phototoxicity”; the “phototoxicity compared with O-glycosylated chlorin derivative No. 15” value is reported as “not any differences in phototoxicity”.
As to `CC(=O)OC[C@H]1O[C@@H](Sc2c(F)c(F)c(-c3c4nc(c(-c5c(F)c(F)c(S[C@@H]6O[C@H](COC(C)=O)[C@@H](OC(C)=O)[C@H](OC(C)=O)[C@H]6OC(C)=O)c(F)c5F)c5ccc([nH]5)c(-c5c(F)c(F)c(S[C@@H]6O[C@H](COC(C)=O)[C@@H](OC(C)=O)[C@H](OC(C)=O)[C@H]6OC(C)=O)c(F)c5F)c5nc(c(-c6c(F)c(F)c(S[C@@H]7O[C@H](COC(C)=O)[C@@H](OC(C)=O)[C@H](OC(C)=O)[C@H]7OC(C)=O)c(F)c6F)c6ccc3[nH]6)C=C5)C=C4)c(F)c2F)[C@H](OC(C)=O)[C@@H](OC(C)=O)[C@@H]1OC(C)=O` [compound 10, 5,10,15,20-tetrakis(4-(2,3,4,6-tetra-O-acetyl-β-D-glucopyranosylthio)-2,3,5,6-tetrafluorophenyl)porphyrin, reference compound], the “phototoxicity of acetyl-protected compound compared with No. 6, 7, 8, 9 respectively” value under setting [1] was “phototoxicity was disappeared”.
For the molecule `CC(=O)OCC1OC(Sc2c(F)c(F)c(-c3c4nc(c(-c5c(F)c(F)c(SC6OC(COC(C)=O)C(OC(C)=O)C(OC(C)=O)C6OC(C)=O)c(F)c5F)c5ccc([n-]5)c(-c5c(F)c(F)c(SC6OC(COC(C)=O)C(OC(C)=O)C(OC(C)=O)C6OC(C)=O)c(F)c5F)c5nc(c(-c6c(F)c(F)c(SC7OC(COC(C)=O)C(OC(C)=O)C(OC(C)=O)C7OC(C)=O)c(F)c6F)c6ccc3[n-]6)C=C5)C=C4)c(F)c2F)C(OC(C)=O)C(OC(C)=O)C1OC(C)=O.[Pd+2]` [compound 11, {5,10,15,20-tetrakis[4-(2,3,4,6-tetra-O-acetyl-β-D-glucopyranosylthio)-2,3,5,6-tetrafluorophenyl]porphyrinato}palladium (II), reference compound], the “phototoxicity of acetyl-protected compound compared with No. 6, 7, 8, 9 respectively” value under setting [1] is “phototoxicity was disappeared”.
